Activity calls are given as the source filed them. The rule behind the calls is not given here.
Tests used:
[1] = Prodrug activation assessed as GSH mediated compound reduction by measuring absorbance at 340 nm at 150 uM in presence of NADPH
HepG2 [2] = experiment: Cytotoxicity against human HepG2 cells with high TrxR expression assessed as reduction in cell viability incubated for 48 hrs by MTT assay; format: functional, cell-based; details: HepG2, 48 h
HeLa [3] = experiment: Cytotoxicity against human HeLa cells with high TrxR expression assessed as reduction in cell viability incubated for 48 hrs by MTT assay; format: functional, cell-based
[4] = Stability in human plasma assessed as parent compound remaining at 100 uM measured after 48 hrs by HPLC analysis; format: ADME, cell-free; details: read-out: Stability
[5] = Stability in mouse plasma assessed as parent compound remaining at 100 uM measured after 48 hrs by HPLC analysis; format: ADME, cell-free; details: read-out: Stability
HL-60 [6] = experiment: Cytotoxicity against human HL-60 cells with low TrxR expression assessed as reduction in cell viability incubated for 48 hrs by MTT assay; format: functional, cell-based; details: HL-60, 48 h
[7] = Cytotoxicity against human BEAS-2B cells with low TrxR expression assessed as reduction in cell viability incubated for 48 hrs by MTT assay; format: toxicity, cell-based
[8] = Stability of compound in PBS at pH 7.4 assessed as parent compound remaining at 100 uM measured after 48 hrs by HPLC analysis; format: physicochemical; details: read-out: Stability
MCF7 [9] = experiment: Cytotoxicity against human MCF7 cells with low TrxR expression assessed as reduction in cell viability incubated for 48 hrs by MTT assay; format: functional, cell-based; details: MCF7, 48 h
[10] = Cytotoxicity against human HEK293T cells with low TrxR expression assessed as reduction in cell viability incubated for 48 hrs by MTT assay; format: toxicity, cell-based, HEK-293T
[11] = molecular target: T1, Thioredoxin (Homo sapiens) (UniProt P10599); experiment: (§1) Substrate activity at Trx (unknown origin) assessed as reduction in 2-((2-hydroxyethyl)disulfaneyl)ethyl ((S)-1-(((2S,3S,4R,5R)-5-(6-(dimethylamino)-9H-purin-9-yl)-4-hydroxy-2-(hydroxymethyl)tetrahydrofuran-3-yl)amino)-3-(4-methoxyphenyl)-1-oxopropan-2-yl)carbamate level by measuring absorbance at 340 nm at 150 uM in presence of NADPH
T1 sequence (whole entry): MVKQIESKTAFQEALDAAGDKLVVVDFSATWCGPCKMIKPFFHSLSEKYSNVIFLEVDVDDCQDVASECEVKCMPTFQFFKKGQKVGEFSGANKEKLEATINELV

[12] = Prodrug activation in human HepG2 cells assessed as increase in biotin labelling at 1 uM incubated for 12 hrs by Western blotting analysis; format: cell-based; details: hepg2, 12 h
[13] = Prodrug activation in human HepG2 cells assessed as increase in rhodamine labelling at 1 uM incubated for 12 hrs by in-gel fluorescence imaging analysis; format: cell-based; details: hepg2, 12 h
[14] = Prodrug conversion in human HepG2 cells assessed as proteome incorporation at 1 uM pretreated with AF for 30 mins followed by compound addition; format: ADME, cell-based; details: hepg2, 1 µM
[15] = Prodrug activation assessed as TrxR (unknown origin) mediated compound reduction by measuring absorbance at 340 nm at 150 uM in presence of NADPH; details: human
HepG2 [16] = experiment: Cytotoxicity against human HepG2 cells expressing shTXNRD1 assessed as reduction in cell viability incubated for 48 hrs by MTT assay; format: functional, cell-based; details: HepG2, 48 h
BEAS-2B = experiment: Potency index, ratio of test compound IC50 to puromycin IC50 for cytotoxicity against human BEAS-2B cells; format: functional
[17] = (§2) Prodrug activation in human HeLa cell lysate expressing shTXNRD1 assessed as reduction in 1,2-dithiolan-4-yl ((S)-1-(((2S,3S,4R,5R)-5-(6-(dimethylamino)-9H-purin-9-yl)-4-hydroxy-2-(hydroxymethyl)tetrahydrofuran-3-yl)amino)-3-(4-methoxyphenyl)-1-oxopropan-2-yl)carbamate level by measuring absorbance at 340 nm at 150 uM pretreated with TrxR inhibitor AF for 30 mins followed by compound addition in presence of NADPH; format: ADME, subcellular
MCF7 [18] = experiment: Potency index, ratio of test compound IC50 to puromycin IC50 for cytotoxicity against human MCF7 cells; format: functional
[19] = Prodrug activation assessed as increase in TrxR (unknown origin) mediated NADPH oxidation by measuring absorbance at 340 nm at 150 uM; details: human
HEK-293T = experiment: Potency index, ratio of test compound IC50 to puromycin IC50 for cytotoxicity against human HEK293T cells; format: functional
HepG2 [20] = experiment: Potency index, ratio of test compound IC50 to puromycin IC50 for cytotoxicity against human HepG2 cells; format: functional
HepG2 [21] = experiment: Cytotoxicity against human HepG2 cells expressing shNT assessed as reduction in cell viability incubated for 48 hrs by MTT assay; format: functional, cell-based; details: HepG2, 48 h
HeLa [22] = experiment: Potency index, ratio of test compound IC50 to puromycin IC50 for cytotoxicity against human HeLa cells; format: functional
[23] = molecular target: T1, Thioredoxin (Homo sapiens); experiment: as §1, with “1,2-dithiolan-4-yl” for “2-((2-hydroxyethyl)disulfaneyl)ethyl”
HL-60 [24] = experiment: Potency index, ratio of test compound IC50 to puromycin IC50 for cytotoxicity against human HL-60 cells; format: functional
[25] = as §2, with “lysate” for “lysate expressing shTXNRD1”; format: ADME, subcellular
[26] = Prodrug activation in human HepG2 cells assessed as increase in biotin labelling at 10 uM incubated for 12 hrs by Western blotting analysis; format: cell-based; details: hepg2, 12 h
[27] = Prodrug conversion in human HepG2 cells assessed as inhibition of proteome incorporation at 1 uM pretreated with AF for 30 mins followed by compound addition; format: cell-based; details: hepg2, 1 µM
[28] = Prodrug activation in human HepG2 cells assessed as increase in rhodamine labelling at 10 uM incubated for 12 hrs by in-gel fluorescence imaging analysis; format: cell-based; details: hepg2, 12 h

## COc1ccc(C[C@H](NC(=O)OCCSSCCO)C(=O)N[C@H]2[C@@H](O)[C@H](n3cnc4c(N(C)C)ncnc43)O[C@@H]2CO)cc1
[1]
  Activity: Active
HepG2 [2]
  IC50: 9.27 µM
HeLa [3]
  IC50: 6.84 µM
[4]
  remaining at 48 h, 100 µM: 29%
[5]
  remaining at 48 h, 100 µM: 42%
HL-60 [6]
  IC50: 56.7 µM
[7]
  IC50 at 48 h: 12.6 µM
[8]
  remaining at 48 h, 100 µM: > 90%
MCF7 [9]
  IC50: 27.5 µM
[10]
  IC50 at 48 h: 24.7 µM
[11]
  Activity: Active

## C#CCOc1ccc(C[C@H](N)C(=O)N[C@H]2[C@@H](O)[C@H](n3cnc4c(N(C)C)ncnc43)O[C@@H]2CO)cc1
[12]
  Activity: Active
[13]
  Activity: Active
[14]
  Activity: Active

## COc1ccc(C[C@H](NC(=O)OC2CCCC2)C(=O)N[C@H]2[C@@H](O)[C@H](n3cnc4c(N(C)C)ncnc43)O[C@@H]2CO)cc1
HepG2 [2]
  IC50: > 40 µM
HeLa [3]
  IC50: > 40 µM
[4]
  remaining at 48 h, 100 µM: > 90%
[5]
  remaining at 48 h, 100 µM: > 90%
HL-60 [6]
  IC50: > 40 µM
[7]
  IC50 at 48 h: > 40 µM
[8]
  remaining at 48 h, 100 µM: > 90%
MCF7 [9]
  IC50: > 40 µM
[15]
  Drug metabolism: Metabolite_Notdetected
[10]
  IC50 at 48 h: > 40 µM

## COc1ccc(C[C@H](NC(=O)OCCCCCCO)C(=O)N[C@H]2[C@@H](O)[C@H](n3cnc4c(N(C)C)ncnc43)O[C@@H]2CO)cc1
HepG2 [2]
  IC50: > 40 µM
HeLa [3]
  IC50: > 40 µM
[4]
  remaining at 48 h, 100 µM: > 90%
[5]
  remaining at 48 h, 100 µM: > 90%
HL-60 [6]
  IC50: > 40 µM
[7]
  IC50 at 48 h: > 40 µM
[8]
  remaining at 48 h, 100 µM: > 90%
MCF7 [9]
  IC50: > 40 µM
[15]
  Drug metabolism: Metabolite_Notdetected
[10]
  IC50 at 48 h: > 40 µM

## COc1ccc(C[C@H](N)C(=O)N[C@H]2[C@@H](O)[C@H](n3cnc4c(N(C)C)ncnc43)O[C@@H]2CO)cc1 [PUROMYCIN]
HepG2 [2]
  IC50: 1.29 µM
HeLa [3]
  IC50: 0.9 µM
HL-60 [6]
  IC50: 3.73 µM
[7]
  IC50 at 48 h: 0.74 µM
MCF7 [9]
  IC50: 1.06 µM
[10]
  IC50 at 48 h: 1.28 µM

## COc1ccc(C[C@H](NC(=O)OC2CSSC2)C(=O)N[C@H]2[C@@H](O)[C@H](n3cnc4c(N(C)C)ncnc43)O[C@@H]2CO)cc1
HepG2 [16]
  IC50: 11.3 µM
BEAS-2B
  Ratio IC50: 11.4
HepG2 [2]
  IC50: 8.08 µM
[17]
  Drug metabolism: Metabolite_Notdetected
HeLa [3]
  IC50: 6.08 µM
[4]
  remaining at 48 h, 100 µM: > 90%
[5]
  remaining at 48 h, 100 µM: > 90%
MCF7 [18]
  Ratio IC50: 13.4
[19]
  Activity: Active
HL-60 [6]
  IC50: 55 µM
HEK-293T
  Ratio IC50: 15.2
[7]
  IC50 at 48 h: 8.42 µM
[8]
  remaining at 48 h, 100 µM: > 90%
MCF7 [9]
  IC50: 14.2 µM
HepG2 [20]
  Ratio IC50: 6.3
HepG2 [21]
  IC50: 4.88 µM
HeLa [22]
  Ratio IC50: 6.8
[23]
  Activity: Active
[10]
  IC50 at 48 h: 19.5 µM
HL-60 [24]
  Ratio IC50: 14.7
[25]
  Drug metabolism: Metabolite_Notdetected

## C#CCOc1ccc(C[C@H](NC(=O)OC2CSSC2)C(=O)N[C@H]2[C@@H](O)[C@H](n3cnc4c(N(C)C)ncnc43)O[C@@H]2CO)cc1
[26]
  Activity: Active
[27]
  inhibition (INH): Active
[28]
  Activity: Active
